The source of these data is PubChem BioAssay AID1259407 (Chemical Carcinogenesis Research Information System (CCRIS), 2018).

For the data set, the system named is CCRIS mutagenicity, Ames/micronucleus/aberration tests. Nature of the data set: CCRIS mutagenicity studies.
[1] abbreviates: Test System: AMES SALMONELLA TYPHIMURIUM, Strain/Indicator: TA98, Metabolic Activation: NONE, Method: PREINCUBATION
[2] abbreviates: Test System: AMES SALMONELLA TYPHIMURIUM, Strain/Indicator: TA98, Metabolic Activation: NONE, Method: STANDARD PLATE.
The mark [3] stands for this setting: Test System: AMES SALMONELLA TYPHIMURIUM, Strain/Indicator: TA98, Metabolic Activation: RAT, LIVER, S-9, AROCLOR, Method: STANDARD PLATE.

The structures appear in SMILES notation. The source made the active and inactive calls. How the calls were made is not given here.

Regarding `[O]=[Cr](=[O])([OH])[O][Cr](=[O])(=[O])[OH]`, the mutagenic call is “active; positive” (Test System: AMES SALMONELLA TYPHIMURIUM, Strain/Indicator: TA92, Metabolic Activation: NONE, Method: STANDARD PLATE); “active; positive” (Test System: AMES SALMONELLA TYPHIMURIUM, Strain/Indicator: TA97, Metabolic Activation: HAMSTER, LIVER, S-9, AROCLOR 1254 (30%), Method: PREINCUBATION); “active; positive” (Test System: AMES SALMONELLA TYPHIMURIUM, Strain/Indicator: TA97, Metabolic Activation: NONE, Method: PREINCUBATION); “active; positive” (Test System: AMES SALMONELLA TYPHIMURIUM, Strain/Indicator: TA97, Metabolic Activation: RAT, LIVER, S-9, AROCLOR 1254 (30%), Method: PREINCUBATION); “active; positive” (Test System: AMES SALMONELLA TYPHIMURIUM, Strain/Indicator: TA97A, Metabolic Activation: NONE, Method: MICROSUSPENSION-PREINCUBATION); “active; positive” (Test System: AMES SALMONELLA TYPHIMURIUM, Strain/Indicator: TA97A, Metabolic Activation: RAT, LIVER, S-9, AROCLOR 1254, Method: MICROSUSPENSION-PREINCUBATION). In addition, the mutagenic call (Test System: AMES SALMONELLA TYPHIMURIUM, Strain/Indicator: TA98, Metabolic Activation: HAMSTER, LIVER, S-9, AROCLOR 1254 (30%), Method: PREINCUBATION) is “active; positive”; the mutagenic call (Test System: AMES SALMONELLA TYPHIMURIUM, Strain/Indicator: TA98, Metabolic Activation: NONE, Method: MICROSUSPENSION-PREINCUBATION) was “active; positive”; the mutagenic call under setting [1] is “active; positive”; the mutagenic call under setting [2] was “active; positive”; the mutagenic call (Test System: AMES SALMONELLA TYPHIMURIUM, Strain/Indicator: TA98, Metabolic Activation: RAT, LIVER, S-9, AROCLOR 1254 (30%), Method: PREINCUBATION) was “active; positive”; the mutagenic call (Test System: AMES SALMONELLA TYPHIMURIUM, Strain/Indicator: TA98, Metabolic Activation: RAT, LIVER, S-9, AROCLOR 1254, Method: MICROSUSPENSION-PREINCUBATION) was “active; positive”. The mutagenic call reads like this: (Test System: AMES SALMONELLA TYPHIMURIUM, Strain/Indicator: TA98, Metabolic Activation: RAT, LIVER, S-9, Method: STANDARD PLATE) “active; positive”; (Test System: AMES SALMONELLA TYPHIMURIUM, Strain/Indicator: TA100, Metabolic Activation: HAMSTER, LIVER, S-9, AROCLOR 1254 (30%), Method: PREINCUBATION) “active; positive”; (Test System: AMES SALMONELLA TYPHIMURIUM, Strain/Indicator: TA100, Metabolic Activation: NONE, Method: MICROSUSPENSION-PREINCUBATION) “active; positive”; (Test System: AMES SALMONELLA TYPHIMURIUM, Strain/Indicator: TA100, Metabolic Activation: NONE, Method: PREINCUBATION) “active; positive”; (Test System: AMES SALMONELLA TYPHIMURIUM, Strain/Indicator: TA100, Metabolic Activation: RAT, LIVER, S-9, AROCLOR 1254 (30%), Method: PREINCUBATION) “active; positive”; (Test System: AMES SALMONELLA TYPHIMURIUM, Strain/Indicator: TA100, Metabolic Activation: RAT, LIVER, S-9, AROCLOR 1254, Method: MICROSUSPENSION-PREINCUBATION) “active; positive”. Further, the mutagenic call is “active; positive” (Test System: AMES SALMONELLA TYPHIMURIUM, Strain/Indicator: TA100, Metabolic Activation: RAT, LIVER, S-9, AROCLOR 1254, Method: STANDARD PLATE); “active; positive” (Test System: AMES SALMONELLA TYPHIMURIUM, Strain/Indicator: TA100, Metabolic Activation: RAT, LIVER, S-9, Method: STANDARD PLATE); “active; positive” (Test System: AMES SALMONELLA TYPHIMURIUM, Strain/Indicator: TA102, Metabolic Activation: NONE, Method: FLUCTUATION TEST); “active; positive” (Test System: AMES SALMONELLA TYPHIMURIUM, Strain/Indicator: TA102, Metabolic Activation: NONE, Method: MICROSUSPENSION-PREINCUBATION); “active; positive” (Test System: AMES SALMONELLA TYPHIMURIUM, Strain/Indicator: TA102, Metabolic Activation: NONE, Method: STANDARD PLATE); “active; positive” (Test System: AMES SALMONELLA TYPHIMURIUM, Strain/Indicator: TA102, Metabolic Activation: RAT, LIVER, S-9, AROCLOR 1254, Method: MICROSUSPENSION-PREINCUBATION). Moreover, the mutagenic call runs as follows: (Test System: AMES SALMONELLA TYPHIMURIUM, Strain/Indicator: TA103, Metabolic Activation: NONE, Method: STANDARD PLATE) “active; positive”; (Test System: AMES SALMONELLA TYPHIMURIUM, Strain/Indicator: TA104, Metabolic Activation: NONE, Method: STANDARD PLATE) “active; positive”; (Test System: AMES SALMONELLA TYPHIMURIUM, Strain/Indicator: TA1535, Metabolic Activation: NONE, Method: STANDARD PLATE) “inactive; negative”; (Test System: AMES SALMONELLA TYPHIMURIUM, Strain/Indicator: TA1535, Metabolic Activation: RAT, LIVER, S-9, Method: STANDARD PLATE) “inactive; negative”; (Test System: AMES SALMONELLA TYPHIMURIUM, Strain/Indicator: TA1537, Metabolic Activation: NONE, Method: STANDARD PLATE) “inactive; negative”; (Test System: AMES SALMONELLA TYPHIMURIUM, Strain/Indicator: TA1537, Metabolic Activation: RAT, LIVER, S-9, Method: STANDARD PLATE) “inactive; negative”. The mutagenic call was “inactive; negative” (Test System: AMES SALMONELLA TYPHIMURIUM, Strain/Indicator: TA1538, Metabolic Activation: NONE, Method: STANDARD PLATE); “inactive; negative” (Test System: AMES SALMONELLA TYPHIMURIUM, Strain/Indicator: TA1538, Metabolic Activation: RAT, LIVER, S-9, Method: STANDARD PLATE); “active; positive” (Test System: AMES SALMONELLA TYPHIMURIUM, Strain/Indicator: TA2638, Metabolic Activation: NONE, Method: PREINCUBATION); “active; positive” (Test System: AMES SALMONELLA TYPHIMURIUM, Strain/Indicator: TA2638, Metabolic Activation: NONE, Method: STANDARD PLATE); “active; positive” (Test System: AMES SALMONELLA TYPHIMURIUM, Strain/Indicator: TA2638A, Metabolic Activation: NONE, Method: STANDARD PLATE); “active; positive” (Test System: E. COLI, Strain/Indicator: WP2 (PKM101), Metabolic Activation: NONE, Method: STANDARD PLATE). For the same molecule, the mutagenic call reads like this: (Test System: E. COLI, Strain/Indicator: WP2 UVRA (PKM101), Metabolic Activation: NONE, Method: STANDARD PLATE) “active; positive”; (Test System: E. COLI, Strain/Indicator: WP2 UVRA, Metabolic Activation: NONE, Method: SPOT TEST) “active; positive”; (Test System: E. COLI, Strain/Indicator: WP2 UVRA, Metabolic Activation: NONE, Method: STANDARD PLATE) “active; positive”; (Test System: UDS HUMAN AMNION FL CELL LINE, Strain/Indicator: THY INCORP, Metabolic Activation: NONE, Method: LIQUID SCINTILLATION COUNTING) “active; positive”.

With `O=[N+]([O-])c1c(Cl)c(Cl)c2c(c1Cl)Oc1cc(Cl)c(Cl)cc1O2`, the mutagenic call under setting [2] is “active; positive”; the mutagenic call under setting [3] is “active; positive”; the mutagenic call (Test System: AMES SALMONELLA TYPHIMURIUM, Strain/Indicator: TA100, Metabolic Activation: NONE, Method: STANDARD PLATE) is “inactive; negative”; the mutagenic call (Test System: AMES SALMONELLA TYPHIMURIUM, Strain/Indicator: TA100, Metabolic Activation: RAT, LIVER, S-9, AROCLOR, Method: STANDARD PLATE) is “active; positive”.

As to `Cn1ccc2ccc3ccc4ccc(O)cc4c3c21`, the mutagenic call under setting [3] is “active; positive”.

Consider `C[C@H](CCC(=O)O)[C@H]1CC[C@H]2[C@@H]3CC[C@@H]4C[C@H](O)CC[C@]4(C)[C@H]3C[C@@H](O)[C@]12C`, for which the mutagenic call was “inactive; negative” (Test System: AMES SALMONELLA TYPHIMURIUM, Strain/Indicator: TA98, Metabolic Activation: NONE, Method: FLUCTUATION TEST); “inactive; negative” under setting [1]; “inactive; negative” (Test System: AMES SALMONELLA TYPHIMURIUM, Strain/Indicator: TA98, Metabolic Activation: RAT, LIVER, S-9, PCB, Method: PREINCUBATION); “inactive; negative” (Test System: AMES SALMONELLA TYPHIMURIUM, Strain/Indicator: TA100, Metabolic Activation: NONE, Method: FLUCTUATION TEST).
